TGI and GI50 data for 26 molecules are collected here from PubChem BioAssay (NCI).

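Each compound was tested at five concentrations against cells in 96-well plates for 48 hours. GI50 = concentration required for 50% inhibition of growth. TGI: concentration producing complete growth inhibition.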

Test systems include KM12 colon; MALME-3M melanoma; MDA-MB-435; SN12C renal; SR leukemia.
Common to all, as to assay: growth of human tumour cells (NCI), 48 h

As for `CN1CCN(c2ccc(-n3cc(C(=O)O)c(=O)c4cc(F)c(N5CCN(C)CC5)cc43)nc2)CC1`, the TGI in the test on KM12 colon, with MALME-3M melanoma, in the test with MDA-MB-435, in the test with SN12C renal and in the test on SR leukemia was > 100 µM in each case.
As for `O=C(/C(=C/c1cccs1)c1ccccc1)c1ccccc1`, the TGI in the test with KM12 colon, in the test with MDA-MB-435, in the test on SN12C renal and in the test with SR leukemia was > 100 µM in each case.
On to `N#CC(c1cc(Cl)ncn1)c1nc2ccccc2s1` (configuration not stated), for which the TGI in the test on KM12 colon was > 100 µM; in the test with MALME-3M melanoma, 24.6 µM; in the test with MDA-MB-435 it was 62 µM; in the test with SN12C renal it was 7.49 µM.
Take `O=C(O)c1cc(Sc2ccc([N+](=O)[O-])c(C(=O)O)c2)ccc1[N+](=O)[O-]`: the TGI is > 100 µM in the test on KM12 colon; > 78.9 µM in the test on MALME-3M melanoma; > 100 µM with MDA-MB-435; > 100 µM with SN12C renal; > 100 µM in the test on SR leukemia. For the same molecule, in the test with SR leukemia, the GI50 was > 100 µM.
In the case of `COC(=O)CCC(=O)c1ccc2c(c1)CC1(C2)Cc2ccc3c(c2C1)CCCC3=O` (configuration not stated), the TGI in the test on KM12 colon is > 85 µM; in the test on MALME-3M melanoma, > 68.1 µM; in the test on MDA-MB-435 it was 19.9 µM; with SN12C renal, > 100 µM; with SR leukemia it was 8.05 µM.
On to `O=C1OC(c2ccccc2)N/C1=C\c1ccc2c(c1)OCO2` (configuration not stated), for which the TGI was > 95.5 µM in the test with KM12 colon, > 100 µM with MDA-MB-435, > 100 µM in the test with SN12C renal and 63.9 µM with SR leukemia.
Take `S=C1SC(c2ccc(Cl)cc2)(c2ccc(Cl)cc2)c2ccccc21`: the TGI with KM12 colon is > 100 µM; with MALME-3M melanoma it was > 100 µM; in the test on MDA-MB-435, > 100 µM; in the test with SN12C renal, > 100 µM; in the test on SR leukemia, 89.9 µM.
As to `O=C(N/C(=C\c1ccccc1)C1Nc2ccccc2C(=O)O1)c1ccccc1` (configuration not stated), the TGI in the test on KM12 colon is 31.2 µM; with MALME-3M melanoma it was 45.6 µM; in the test on MDA-MB-435, > 100 µM; in the test on SN12C renal it was 84.6 µM.
As to `CC1(C)C2CCC1(CC(=O)O)C(Cl)C2` (configuration not stated), the TGI with KM12 colon, with MALME-3M melanoma, in the test with MDA-MB-435 and in the test on SN12C renal was > 100 µM each time.
As to `CN(C)/C=N/S(=O)(=O)c1nn2c(C=O)c(-c3ccc(-c4ccc([N+](=O)[O-])cc4)o3)nc2s1`, the TGI in the test on KM12 colon was > 49.1 µM; in the test on MALME-3M melanoma it was 4.15 µM; in the test on MDA-MB-435, 7.41 µM; in the test on SN12C renal it was 4.57 µM; in the test with SR leukemia it was 5.4 µM.
As for `CC(NC(=O)C(N)CC(=O)O)NC(=O)N1CCCC1` (configuration not stated), the TGI in the test on KM12 colon, in the test with MALME-3M melanoma, in the test with MDA-MB-435 and in the test on SN12C renal was > 100 µM each time.
As for `C[C@]12CCC(=O)C=C1CC[C@@H]1C2CC[C@]2(C)Nc3c(ncn3-c3ccc(F)cc3)CC12` (some centres not stated), the TGI is 85.9 µM with KM12 colon; 70.4 µM with MALME-3M melanoma; 42.5 µM in the test with MDA-MB-435; > 100 µM in the test with SN12C renal; 29.9 µM with SR leukemia.
For the molecule `OCSc1nn(CO)c(=S)s1`, the TGI in the test with KM12 colon came out at 40.4 µM; in the test with MALME-3M melanoma, 44.8 µM; with MDA-MB-435, 34.3 µM; in the test on SN12C renal it was 49.4 µM; in the test on SR leukemia, 11.9 µM.
As for `CCNCCNC(=O)c1ccc(Br)cc1`, the TGI in the test with KM12 colon, in the test on SN12C renal and in the test with SR leukemia was > 100 µM each time.
Regarding `CCCCCCCC/C=C/CCCCCCCC1CC(O)C(=O)O1` (configuration not stated), the TGI in the test on MALME-3M melanoma, with MDA-MB-435 and in the test with SR leukemia was > 100 µM throughout.
`C=C(C(=O)O)[C@@H]1C[C@@H]2O[C@H]1CC(C)=CCC/C(C)=C/CC[C@@]2(C)O`: the TGI with KM12 colon, in the test on MALME-3M melanoma, in the test with MDA-MB-435, in the test with SN12C renal and in the test with SR leukemia was > 100 µM each time.
As for `Cc1cc(C#N)c(Nc2c(C)cccc2[N+](=O)[O-])s1`, the TGI was > 100 µM in the test on KM12 colon; 89.3 µM in the test on MALME-3M melanoma; > 100 µM with MDA-MB-435; > 100 µM in the test with SN12C renal; > 100 µM with SR leukemia.
Regarding `NC(CCCCNC(=O)C(Cc1ccccc1)NC(=O)OCc1ccccc1)C(=O)NC(CCCCNC(=O)C(Cc1ccccc1)NC(=O)OCc1ccccc1)C(=O)NC(CCCCNC(=O)C(Cc1ccccc1)NC(=O)OCc1ccccc1)C(=O)NC(CCCCNC(=O)C(Cc1ccccc1)NC(=O)OCc1ccccc1)C(=O)NC(CCCCNC(=O)C(Cc1ccccc1)NC(=O)OCc1ccccc1)C(=O)NC(CCCCNC(=O)C(Cc1ccccc1)NC(=O)OCc1ccccc1)C(=O)O` (configuration not stated), the TGI in the test with MALME-3M melanoma, in the test with MDA-MB-435, in the test with SN12C renal and with SR leukemia was > 100 µM each time.
Regarding `CCn1cnc2c(NC(C)=O)ncnc21`, the TGI in the test with KM12 colon, with MALME-3M melanoma, with MDA-MB-435 and in the test with SN12C renal was > 100 µM in each case.
Turning to `CCc1n[nH]c(=O)n1NC(=O)/C=C\C(=O)O`, the TGI in the test with MALME-3M melanoma, in the test on MDA-MB-435, with SN12C renal and with SR leukemia was > 100 µM throughout.
As to `CCCCCCCCCCCCP(=O)(O)OCC(N)C(=O)O` (configuration not stated), the TGI in the test on MALME-3M melanoma was > 100 µM; with MDA-MB-435, 34.6 µM; in the test on SN12C renal, 42.4 µM; with SR leukemia, > 100 µM.
Turning to `Cc1cc2[nH]c3c(C#N)c(-c4ccccc4)c(CN4CCOCC4)c(=O)n3c2cc1C`, the TGI with KM12 colon, with MALME-3M melanoma, in the test on MDA-MB-435 and with SN12C renal was > 100 µM each time.
For `CC(=O)OCc1cn(S(=O)(=O)c2ccc(C)cc2)cn1`, the TGI with MALME-3M melanoma, in the test with MDA-MB-435, with SN12C renal and in the test with SR leukemia was > 100 µM in each case.
Consider `CCNc1ncnc2n[nH]nc12`, for which the TGI in the test with KM12 colon, in the test on MALME-3M melanoma, in the test on MDA-MB-435 and with SN12C renal was > 100 µM in each case.
Turning to `c1ccc2c(c1)C(=Nc1ccc(N=C3c4ccccc4-c4ccccc43)cc1)c1ccccc1-2`, the TGI with KM12 colon, with MALME-3M melanoma, with MDA-MB-435 and with SN12C renal was > 100 µM each time.
As for `CCCCP(CCCC)(CCCC)=C(C(=O)OC)C(C(=O)OC)=C1SC(C(=O)OC)=C(C(=O)OC)S1`, the TGI in the test on MALME-3M melanoma is 41.1 µM; in the test on MDA-MB-435, 28.1 µM; with SN12C renal, 29.8 µM; in the test with SR leukemia, > 100 µM.
